We go through 80 molecules from the METLIN SMRT retention time set (Domingo-Almenara et al. 2019).

This data set can be described thus: gradient 5% acetonitrile 3 min, to 50% in 2 min, to 85% in 15 min, held 3 min, 100 µL/min. The note with it: column: Zorbax Extend-C18 2.1 x 50 mm; eluents: water / acetonitrile, 0.1% formic acid. An outline of the steps:
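Values are retention times taken from adduct peaks that software picked and an analyst inspected. The pure standards were run as mixtures of ~100 molecules on HPLC linked to a quadrupole time-of-flight mass spectrometer, in positive and negative ionization mode. A Zorbax Extend-C18 column (2.1 × 50 mm, 1.8 μm) was used at 100 μL/min with water and acetonitrile, each including 0.1% formic acid.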
In turn, `Cn1nccc1-c1cccc(-c2noc(-c3ccnc(Cl)c3)n2)c1` gave an RP-LC retention time of 1050 s. The value for `Cc1ccc(-c2cc3c(=O)n(Cc4nc(-c5ccccn5)no4)ccn3n2)cc1C` was 909 s; that for `O=C(NC1CCN(c2cc(-c3cccs3)[nH]n2)C1)c1ccc2nc[nH]c2c1` (stereo not given) was 564 s. The molecule `NCCc1nc(-c2ccccc2)cs1` displayed an RP-LC retention time of 550 s. With `CCOc1cc(=O)n2c(c1C(=O)Nc1cc(F)ccc1F)CCCC2`, the RP-LC retention time worked out at 748 s. Turning to `O=C(Cn1c(=O)cc(-c2nc(C3CC3)no2)c2ccccc21)Nc1ccccc1`, the RP-LC retention time stood at 937 s. As to `CCOC(=O)c1c(C)[nH]c(C(=O)N2CCC(C(C)C(=O)NCc3ccc4c(c3)OCO4)CC2)c1C` (stereo not given), the RP-LC retention time came to 778 s. In turn, `Cc1csc(NC(=O)C2CCN(S(=O)(=O)c3ccc4c(c3)sc(=O)n4C)CC2)n1` registered an RP-LC retention time of 782 s. `Cc1ccc(-c2noc(C3CCCN3C(=O)NC3CCCCC3)n2)cc1` (stereo not given) displayed an RP-LC retention time of 1020 s. Under `CCN(CC)c1ncc2c(n1)CCC(C(=O)N1CCN(c3ccc(C)cc3)CC1)C2` (stereo not given) stands 793 s; under `CCOc1ccc(C(=O)N2CCC3(CC2)C(=O)N(C)c2ccccc23)cc1OCC`, 842 s; under `CC(C)CN1CC(c2nc(-c3ccccc3)no2)C2(CCCC2)C1` (stereo not given), 763 s. The value for `CCc1cccc(NC(=O)Cn2nc(N3CCSCC3)c3ccccc3c2=O)c1` was 940 s. In turn, `COc1ccc(CCN2CC(=O)N(c3cc(C)cc(C)c3)[C@@H]3CS(=O)(=O)C[C@@H]32)cc1` displayed an RP-LC retention time of 865 s.

`COCCn1ccc2nc(C)c(C(=O)Nc3ccc4c(c3)OCCO4)cc2c1=O` came in with an RP-LC retention time of 679 s. `COc1ccc(CN2CC3(CCN(S(=O)(=O)c4cc(F)ccc4F)CC3)C2=O)cc1` showed an RP-LC retention time of 924 s. For `CCn1cc(CC(=O)NCC2CCCCC2)c2cccnc21`, the RP-LC retention time was determined as 783 s. Under `O=[N+]([O-])c1ccc(-c2csc(N3CCOCC3)n2)cc1` stands 1000 s; under `CC1(C(=O)Nc2ccc(F)c(Cl)c2)Oc2cccnc2NC1=O` (stereo not given), 730 s; under `CCC(CC)C(=O)NCCc1c[nH]c2ccc(C)cc12`, 860 s. `Cc1ccc2oc(-c3nnc(C(=O)NCCCN4CCN(C)CC4)o3)c(C)c2c1` returned an RP-LC retention time of 622 s. The molecule `Cc1ccc2[nH]cc(CCN3CC(C(=O)Nc4ccc(Cl)cc4)CC3=O)c2c1` (stereo not given) showed an RP-LC retention time of 882 s.

The molecule `Cc1ccc(CNC(=O)N2CCC[C@@H]2C(=O)NCc2csc(-c3ccccc3)n2)cc1` had an RP-LC retention time of 824 s.

In turn, `O=S(=O)(c1cc(-c2nnc(C3CCCC3)o2)co1)N1CCC(N2CCCCC2)CC1` showed an RP-LC retention time of 670 s. `CC1Oc2ccc(S(=O)(=O)N3CCC(C(=O)N(C)C4CCCCC4)CC3)cc2NC1=O` (stereo not given) showed an RP-LC retention time of 858 s.

Molecule `O=C(C1=CN(c2ccccc2F)c2cc(Cl)ccc2S1(=O)=O)N1CCCC1` displayed an RP-LC retention time of 842 s. Turning to `CCn1cc(-c2nc(C)c(C(=O)N3CCN(c4ccccc4)CC3)s2)c2cccnc21`, the RP-LC retention time amounted to 994 s. The value for `Cc1cc2n(n1)CCC(=O)N2CCCC(=O)N(C)Cc1ccccc1` was 681 s. With `Cc1nnc(-c2ccc(Cl)cc2)nc1N1CCC(C)CC1`, the RP-LC retention time worked out at 897 s.

For `O=C(Cn1c(=O)c2cccn2c2ccc(F)cc21)NCCCN1CCOCC1`, the RP-LC retention time worked out at 602 s. As to `Cc1c(Cl)cccc1NC(=O)N(C)CC1CCOCC1`, the RP-LC retention time was found to be 750 s. The value for `Cc1cc2nc(C(=O)Nc3ccc(C#N)cc3)cc(C)n2n1` was 890 s; that for `Cc1nnc2c(S(=O)(=O)N(Cc3ccccc3)c3cc(F)cc(F)c3)cccn12` was 865 s; that for `COc1ccccc1NC(=O)N1CCN(c2cc(C)nc(N3CCOCC3)n2)CC1` was 618 s. Under `COc1ccc(NC(=O)Cn2nc3nc(N4CCCC(C)C4)ccn3c2=O)cc1Cl` (stereo not given) stands 717 s. The molecule `COc1ccc(C2=C(C)C(N3CCC(C(=O)N(C)Cc4ccco4)CC3)=NS2(=O)=O)cc1` displayed an RP-LC retention time of 815 s. In the case of `CCOc1cccc(-c2noc(Cc3nnc(-c4ccccc4)o3)n2)c1`, the RP-LC retention time is 1060 s. `CC(C)CCC(=O)N1CCC2(CC1)CC(O)CCO2` (stereo not given) gave an RP-LC retention time of 644 s. Regarding `Cn1nccc1C(=O)N1CCCC1c1nc(-c2cccc(C(F)(F)F)c2)no1` (stereo not given), the RP-LC retention time is 940 s. For `COc1ccc(NC(=O)C2CCCN(c3nnc4ccc(Cl)cn34)C2)cc1OC` (stereo not given), the RP-LC retention time worked out at 701 s. For the molecule `CCN1CCCN(C(=O)C2(c3ccc(OC)cc3)CC2)CC12CCOCC2`, the RP-LC retention time turned out to be 620 s. As for `O=C(Cn1cnc2c(sc3nc(-c4ccccc4)ccc32)c1=O)Nc1ccc(F)cc1F`, the RP-LC retention time came out at 999 s. `O=C(Nc1ccccc1)C1CCN(S(=O)(=O)c2cc(-c3noc(C4CCC4)n3)cs2)CC1`: the RP-LC retention time was 1080 s.

`COCCC1CCN(C(=O)CN(C)C(=O)c2ccc(C#N)cc2)CC1` returned an RP-LC retention time of 666 s.

For the molecule `CCOc1ccccc1CNC(=O)C1CCN(C(=O)c2ncn3c2COC(c2ccccc2)C3)CC1` (stereo not given), the RP-LC retention time is 803 s.

The molecule `O=C1NCCCn2cc(S(=O)(=O)Nc3ccc(F)cc3F)cc21` registered an RP-LC retention time of 641 s. For `CN1C(=O)c2cc(C(=O)NCc3ccccc3F)nn2CC1(C)C(=O)NC1CCCC1` (stereo not given), the RP-LC retention time came to 698 s. `CCC(C)C(NC(=O)c1cccc(OC)c1)C(=O)Nc1nc2ccccc2[nH]1` (stereo not given) yielded an RP-LC retention time of 726 s. Molecule `O=C(NC1CCCCC1)C1CC(=O)N(c2ccc3c(c2)CCN3C(=O)C2CCC2)C1` (stereo not given) returned an RP-LC retention time of 824 s. `O=C(Nc1ccc2c(c1)CN(C(=O)Nc1ccc3c(c1)OCCO3)CCO2)C1CC1`: the RP-LC retention time is 717 s. In turn, `CCOC(=O)c1c(C)oc(C)c(C(=O)OCC)c1=O` came in with an RP-LC retention time of 780 s. The value for `COc1cccc(-c2ccc(=O)n(Cc3nc(-c4cccc(Cl)c4)no3)n2)c1` was 1080 s; that for `Cc1ccc(NC(=O)Cn2cc(C(=O)N3CCCC3)c(=O)c3ccc(C)nc32)cc1` was 713 s.

For the molecule `Brc1cncc(-c2nc(-c3ccc4c(c3)ncn4CCN3CCCC3)no2)c1`, the RP-LC retention time turned out to be 631 s.

As to `COc1ccc(OC)c(C(C)NC(=O)CCc2ccc3nc[nH]c3c2)c1` (stereo not given), the RP-LC retention time amounted to 613 s.

`CCOc1ccccc1NC(=O)C1CCCN(c2nc3c(s2)c(C)nn3-c2ccc(C)cc2)C1` (stereo not given) yielded an RP-LC retention time of 1360 s. The molecule `Cc1ccc(C)c(-c2csc(NC(=O)c3sc(-c4ccccc4)nc3C)n2)c1` showed an RP-LC retention time of 1350 s. Molecule `Cc1ccccc1-n1ccn(Cc2nc(-c3ccc(Cl)c(F)c3)no2)c(=O)c1=O` returned an RP-LC retention time of 679 s. In turn, `CC(C)c1ccc(-c2ccnc3c(C(=O)N4CCN(c5ncccn5)CC4)cnn23)cc1` came in with an RP-LC retention time of 963 s. In turn, `Cc1cc(C)cc(NC(=O)CN2CCC(C(=O)NC3CC3)CC2)c1` gave an RP-LC retention time of 564 s.

With `O=C1NCCCCCCN(C(=O)c2cnccn2)[C@H]2CCCC[C@@H]12`, the RP-LC retention time came out at 684 s. Molecule `O=C(NC1CCCC1)C1CCN(C(=O)c2cc(-c3ccncc3)n[nH]2)CC1` showed an RP-LC retention time of 582 s.

For `COc1ccc(-c2csc(NC(=O)CS(=O)(=O)c3ccc(Cl)cc3)n2)cc1C`, the RP-LC retention time stood at 1080 s. In turn, `Cc1nc(-c2ccc(N3CCN(C(=O)Nc4ccc(F)cc4)CC3)cc2)no1` gave an RP-LC retention time of 787 s. `O=C(Nc1ccccc1F)N1CCc2nnc(C3CC3)n2CC1` showed an RP-LC retention time of 592 s.

In the case of `O=C1NC2(CCN(C(=O)c3cccc(Cl)c3)CC2)N=C1c1ccccc1`, the RP-LC retention time turned out to be 832 s. `O=C(c1ccsc1)N1CCN(C(=O)c2cc(-c3ccccn3)n[nH]2)CC1`: the RP-LC retention time is 614 s. For the molecule `COCCC(=O)N1CCc2c(c(-c3nc(C4CC4)no3)nn2C)C1`, the RP-LC retention time turned out to be 670 s. As for `Cc1noc(C)c1-c1ccc(S(=O)(=O)Nc2ccc(S(N)(=O)=O)cc2)cc1`, the RP-LC retention time was 756 s. For the molecule `Cc1noc(-c2nn(C)c3c2CN(C(=O)c2cc4c(s2)CCCC4)CC3)n1`, the RP-LC retention time was 882 s.

`COc1ccc(OCC(=O)N2CCC(Nc3cccnc3)C2)cc1` (stereo not given) returned an RP-LC retention time of 726 s. On to `O=S(=O)(c1ccc(-c2nnc(C3CC3)o2)o1)N1CCN(c2ccccc2)CC1`, for which the RP-LC retention time amounted to 971 s. Molecule `CCOCCCNC(=O)c1ccc2c(c1)CCCN2S(C)(=O)=O` returned an RP-LC retention time of 706 s. `Cc1nnc(N2CCCC(C(=O)NCc3ccco3)C2)c2nn(-c3ccccc3)c(C)c12` (stereo not given) came in with an RP-LC retention time of 680 s.

`O=c1ccn(-c2cccc(F)c2)nc1-c1nc(-c2ccc(OCc3ccccc3)cc2)no1` showed an RP-LC retention time of 1070 s. Regarding `O=C(Nc1ccc2nc(-c3ccccc3)cc(N3CCOCC3)c2c1)NC1CCCCC1`, the RP-LC retention time was determined as 732 s. Under `COc1ccc(NC(=O)CSc2nc3nc(C)cc(C)n3n2)cc1OC` stands 652 s. In the case of `Cc1nnc2ccc(N3CCCC3)nn12`, the RP-LC retention time is 726 s.

In the case of `COc1ccc2oc(-c3ccccc3)c(C(=O)Nc3nccs3)c2c1`, the RP-LC retention time worked out at 931 s.

Take `CN(C(=O)Nc1ccccc1)C1CCc2nn(CC3CC3)c(=O)n2CC1` (stereo not given): the RP-LC retention time came out at 681 s.
